Experimental findings from PMC4890880 (ACS infectious diseases, 2016) are described below.

The test system of series [1] is P. falciparum 3D7 parasites. The series can be described thus: Asexual erythrocytic-stage SYBR Green I proliferation assay, 1536-well. The class given is cell-based, Plasmodium falciparum.
Series [2] has as its system Plasmodium berghei (Pb-Luc) exoerythrocytic-stage parasites. The series can be described thus: microbe, parasite or virus in culture. To be noted: for inhibition at 10 µM: read-out: PbLuc max inhibition (%) @ 10 uM.
Series [3] shares this test system. To be noted: read-out: P. berghei (liver) IC50; Table S1, validation set of 50 antimalarials; Pb-Luc.
Series [4] relates to Plasmodium cynomolgi exoerythrocytic-stage small (hypnozoites) and large (liver stage schizonts) parasites. The series can be described thus: P. cynomolgi liver assay in primary hepatocytes. To be noted: Plasmodium cynomolgi, Hepatocyte.
For series [5], the system named is HepG2-A16-CD81EGFP cells. The series can be described thus: cells. To be noted: Homo sapiens; for IC50: HepG2, read-out: Tox IC50; for inhibition at 50 µM: HepG2, read-out: Tox max inhibition (%) @ 50 uM; for inhibition at 10 µM: HepG2, read-out: Tox max inhibition (%) @ 10 uM.
For series [6], the target named is QuantiLum Recombinant Luciferase (Photinus pyralis, UniProt P08659). The series can be described thus: Bioluminescence quantification of compound luciferase inhibition. The conditions noted are these: for Emax: read-out: LucInhib max inhibition.
Series [7] has as its system HepG2-A16-CD81EGFP cells. The series can be described thus: cells. To be noted: Homo sapiens, HepG2, read-out: % inhibition.
Series [8] deals with HepG2-A16-CD81EGFP cells.
For series [9], the system named is HepG2-A16-CD81EGFP cells. The series can be described thus: cells. The conditions noted are these: Homo sapiens, HepG2, read-out: % inhibition. The source holds these as a separate data set.
Where [10] appears, read: read-out: P. falciparum (blood) IC50, Table S1, validation set of 50 antimalarials.
[11] abbreviates: read-out: P. berghei (liver) IC50, Table S1, validation set of 50 antimalarials, Pb-Luc.
Where [12] appears, read: read-out: % inhibition normalized to untreated control, Large.
Setting [13] is: read-out: % inhibition normalized to untreated control, Small.
The mark [14] stands for this setting: HepG2, read-out: HepG2 Tox% @ 50 uM rep1.
The mark [15] stands for this setting: read-out: Inhibition% @ 50 uM rep1.
[16] abbreviates: read-out: Inhibition% @ 50 uM rep2.
Setting [17] is: read-out: PbLuc IC50, dose response, 1/3 dilutions, max conc. 10 or 50 uM, unit inferred.
Where [18] appears, read: read-out: PbLuc max inhibition (%) @ 50 uM.
Where [19] appears, read: Plasmodium falciparum, 3D7, read-out: P. falciparum (blood) IC50, Table S1, validation set of 50 antimalarials.
The mark [20] stands for this setting: HepG2, read-out: HepG2 Tox% @ 50 uM rep2.

Broadly, the inhibition is the relative decrease from the control value, in per cent.

Where a name gives a salt, the structure may show the parent alone. Read-outs that look alike come from different tables or passages of the source.

Chain of QuantiLum Recombinant Luciferase (P08659 whole entry): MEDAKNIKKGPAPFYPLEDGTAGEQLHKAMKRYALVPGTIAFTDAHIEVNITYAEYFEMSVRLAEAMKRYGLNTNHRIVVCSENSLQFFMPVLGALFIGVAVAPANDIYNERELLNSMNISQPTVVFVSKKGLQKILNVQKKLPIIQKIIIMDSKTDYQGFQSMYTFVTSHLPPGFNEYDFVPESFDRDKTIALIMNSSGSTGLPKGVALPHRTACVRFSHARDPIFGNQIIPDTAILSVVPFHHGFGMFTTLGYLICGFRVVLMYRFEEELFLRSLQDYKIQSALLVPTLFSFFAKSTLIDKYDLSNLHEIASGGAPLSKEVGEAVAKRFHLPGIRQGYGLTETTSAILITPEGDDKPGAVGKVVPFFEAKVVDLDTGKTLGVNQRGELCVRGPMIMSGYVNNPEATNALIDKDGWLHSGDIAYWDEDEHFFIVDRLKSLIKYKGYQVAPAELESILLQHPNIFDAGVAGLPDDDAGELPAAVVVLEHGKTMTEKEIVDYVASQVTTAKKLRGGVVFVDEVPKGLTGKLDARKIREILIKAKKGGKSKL

As to `OC(c1cc(C(F)(F)F)nc2c(C(F)(F)F)cccc12)C1CCCCN1` (stereo not drawn) [Mefloquine (+ RS), Mefloquine, reference compound], the IC50 in [1] (setting [10]) came out at 16.6 nM; in series [2] (setting [11]), 2330 nM.

In the case of `C[C@]12CC[C@H](OS(=O)(=O)O)CC1=CC[C@@H]1[C@@H]2CC[C@]2(C)C(=O)CC[C@@H]12` [Dehydroepiandrosterone sulphate, reference compound], the IC50 in [1] (setting [10]) is above 62500 nM; in [3], above 12500 nM.

In the case of `O=C(Nc1ccc(-c2nc3cc(NC(=O)c4ccc(Cl)cc4)ccc3[nH]2)cc1)c1ccc(Cl)cc1` [MMV006962], the inhibition at 0.1 µM in series [4] (setting [12]) is 34%; in [4] (setting [13]) it was -8%. For the same compound, the inhibition at 1 µM in series [4] (setting [12]) amounted to 25%; in [4] (setting [13]), 11%. Besides, the inhibition at 10 µM stood at 10% in series [4] (setting [12]) and 17% in [4] (setting [13]). In series [5] (setting [14]), the cytotoxicity at 50 µM is 96%. The IC50 in [5] was 9200 nM; in series [2] (setting [17]), 501 nM. For the same compound, the inhibition at 50 µM in series [5] is 99%; in series [2] (setting [15]), 103%; in series [2] (setting [16]) it was 103%; in series [2] (setting [18]), 99%.

Turning to `COc1cc(N[C@H](C)CCCN)c2nccc(C)c2c1Oc1ccc(Cl)c(Cl)c1` [NPC-1161B, reference compound], the IC50 was 1320 nM in [1] (setting [10]) and 3550 nM in [3].

Take `CCN(CC)CCCNc1ccnc2cc(Cl)ccc12` [AQ-13, reference compound]: the IC50 in series [1] (setting [10]) was 8.7 nM; in series [3], 3160 nM.

On to `Clc1ccc2c(N3CCN(CCCN4CCN(c5ccnc6cc(Cl)ccc56)CC4)CC3)ccnc2c1` [Piperaquine, reference compound], for which the IC50 was 72 nM in series [1] (setting [19]) and above 12500 nM in [2] (setting [11]).

Regarding `COc1ccccc1CNC(=O)CCn1c(=O)[nH]c2ccsc2c1=O` [MMV019066], the inhibition at 0.1 µM was 3% in series [4] (setting [12]) and 10% in series [4] (setting [13]). For the same compound, the values for the inhibition at 1 µM in series [4] (setting [12]) and in series [4] (setting [13]) were -2% and 11%, respectively. For the same compound, the inhibition at 10 µM in series [4] (setting [12]) is 5%; in series [4] (setting [13]), 3%; in [5], -2.17%; in [2], 104%. For the same compound, the cytotoxicity at 50 µM in series [5] (setting [14]) was -14%; in [5] (setting [20]) it was -5.32%. Moreover, the IC50 was above 10000 nM in series [5], 56.1 nM in series [2] (setting [17]) and above 20000 nM in [6]. Also, the inhibition at 50 µM in series [2] (setting [15]) was 94%; in [2] (setting [16]), 95%. Moreover, in series [6], the Emax worked out at 21%.

Turning to `O=C(Nc1cccc(C(F)(F)F)c1)c1cc(Cl)ccc1O` [MMV665807], the inhibition at 0.1 µM in series [4] (setting [12]) worked out at 6%; in series [4] (setting [13]) it was 17%. Besides, the inhibition at 1 µM is 10% in [4] (setting [12]) and 34% in [4] (setting [13]). In addition, the inhibition at 10 µM stood at 12% in series [4] (setting [12]) and 24% in [4] (setting [13]). In addition, the cytotoxicity at 50 µM in series [5] (setting [14]) stood at 98%; in series [5] (setting [20]), 99%. In addition, the IC50 in series [5] was determined as 910 nM; in series [2] (setting [17]) it was 210 nM. For the same compound, the inhibition at 50 µM in series [5] worked out at 94%; in series [2] (setting [15]), 103%; in series [2] (setting [16]) it was 103%; in [2] (setting [18]), 101%.

Consider `CCc1nc(N)nc(N)c1OCCCOc1ccccc1CCC(=O)O` [P218.HCl, reference compound], for which the IC50 worked out at 0.4 nM in series [1] (setting [10]) and 0.916 nM in series [3].

In the case of `CC(C)(C)NCc1cc(Nc2ccnc3cc(Cl)ccc23)c2c(c1O)CCCC2` [Naphthoquine, reference compound], the IC50 amounted to 11.4 nM in series [1] (setting [10]) and 391 nM in [3].

For the compound `CC(=O)N[C@@H](C(=O)O)C(C)(C)S` [N-acetyl-D-penicillamine, reference compound], the IC50 in [1] (setting [10]) was above 62500 nM; in series [3], above 12500 nM.

For the compound `CCCCC[C@H]1CN[C@H](C(=O)N[C@H]([C@H]2O[C@H](SC)[C@H](O)[C@@H](O)[C@H]2O)[C@@H](C)Cl)C1` (relative stereo) [Cis-Mirincamycin, reference compound], the figures for the IC50 in series [1] (setting [10]) and in series [3] were 7560 nM and above 12500 nM, respectively.

Take `COc1ccc(C2=C(c3ccc(OC)cc3)C3(c4ccccc4)C(=O)C2(c2ccccc2)C2C(=O)N(c4ccc(C)cc4)C(=O)C23)cc1` (stereo not drawn) [MMV666101]: the inhibition at 0.1 µM was 7% in [4] (setting [12]) and 4% in series [4] (setting [13]). The inhibition at 1 µM stood at 11% in [4] (setting [12]) and 19% in series [4] (setting [13]). The inhibition at 10 µM in series [4] (setting [12]) was 17%; in [4] (setting [13]), 11%; in series [5], 1.34%; in series [2] it was 106%. Further, the results for the cytotoxicity at 50 µM in [5] (setting [14]) and in series [5] (setting [20]) were 0.41% and 3.59%, respectively. For the same compound, the IC50 in [5] is above 10000 nM; in series [2] (setting [17]), 201 nM; in series [6], above 20000 nM. In addition, the values for the inhibition at 50 µM in series [2] (setting [15]) and in series [2] (setting [16]) were 96% and 100%, respectively. Also, the Emax in series [6] came to 18%.

On to `CC(C)NC(=N)NC(=N)Nc1ccc(Cl)c(Cl)c1` [Chlorproguanil HCL, reference compound], for which the IC50 in series [1] (setting [10]) was 4720 nM; in series [3], 500 nM.

`C[C@H]1c2cccc(O)c2C(O)=C2C(=O)[C@]3(O)C(O)=C(C(N)=O)C(=O)[C@@H](N(C)C)[C@@H]3[C@@H](O)[C@@H]21` [Doxycyclin, reference compound]: the values for the IC50 in series [1] (setting [10]) and in series [3] were 8820 nM and 11600 nM, respectively.

As for `CCCc1cc(O)c2c3c(c(=O)oc2c1)CN(C)CC3` [MMV665841], the inhibition at 50 µM in [7] turned out to be 10.6%; in series [9], 26.3%; in series [2] (setting [15]), 83%; in series [2] (setting [16]), 44%. The “HepG2 Tox% @ 50 uM rep1” value in [8] (HepG2, 50 uM, replicate 1) is 11%. Further, in series [8] (HepG2, 50 uM, replicate 2), the “HepG2 Tox% @ 50 uM rep2” value was 26%.

`Cc1cc(N2CCN(C3CCCC3)CC2)n2c(nc3ccccc32)c1C#N` [MMV006706]: the inhibition at 50 µM in series [7] is -9.81%; in [9], -11.2%; in [2] (setting [15]) it was 48%; in [2] (setting [16]), 24%. Further, the “HepG2 Tox% @ 50 uM rep1” value in series [8] (human, 50 uM) is given as -10%. The “HepG2 Tox% @ 50 uM rep2” value in [8] (human, 50 uM) is reported as -11%.

On to `CCCN(CCC)CC(O)COc1ccccc1C(=O)Nc1ccccc1` (stereo not drawn) [MMV006455], for which the inhibition at 50 µM was -8.15% in series [7], 7.57% in series [9], 84% in series [2] (setting [15]) and 75% in series [2] (setting [16]). In addition, the “HepG2 Tox% @ 50 uM rep1” value in series [8] (human, 50 uM) is -8%.

With `OC(c1cc(C(F)(F)F)nc2c(C(F)(F)F)cccc12)C1CCCCN1` (racemic) [Mefloquine (Racemic), Mefloquine, reference compound], the IC50 in series [1] (setting [10]) was below 0.4 nM; in series [3], 3060 nM.

Consider `COc1ccc(-c2nonc2NC(=O)c2cccc(C)c2)cc1OC` [MMV665890], for which the inhibition at 50 µM in series [7] was -1.53%; in series [9], -2.92%; in series [2] (setting [15]), 7%; in series [2] (setting [16]), 13%. In addition, the “HepG2 Tox% @ 50 uM rep2” value in [8] (human, 50 uM) is listed as -3%.

Turning to `Cc1cc(NS(=O)(=O)c2ccc(N)cc2)no1` [Sulfamethoxazole], in series [1] (setting [19]), the IC50 is above 10000 nM.

As to Trans-Mirincamycin [reference compound], the IC50 in series [1] (setting [10]) is above 10000 nM; in series [3], above 12500 nM.

Consider `COCCN(C(=O)Cc1cccs1)C(C(=O)NCc1ccc(OC)cc1)c1ccc(C(C)C)cc1` (stereo not drawn) [MMV666105], for which the inhibition at 50 µM in [7] came to 98.8%; in series [9], 99.9%; in [2] (setting [15]) it was 104%; in series [2] (setting [16]), 105%. Further, the “HepG2 Tox% @ 50 uM rep2” value in [8] (human, 50 uM) was 100%.

Regarding `CN(C)CCCNc1c2ccccc2nc2ccccc12` [MMV000448], the inhibition at 50 µM was 96.8% in [7], 99.5% in series [9], 103% in series [2] (setting [15]) and 106% in [2] (setting [16]). In addition, in [8] (human, 50 uM), the “HepG2 Tox% @ 50 uM rep2” value was found to be 100%.

Turning to `CCOC(=O)c1c(NC(=O)c2ccccc2)sc2c(O)c(CN(CC)CC)ccc12` [MMV665831], the inhibition at 50 µM in series [7] turned out to be 26.5%; in [9], 34.3%; in series [2] (setting [15]), 96%; in [2] (setting [16]), 70%. Moreover, the “HepG2 Tox% @ 50 uM rep1” value in series [8] (human, 50 uM) is 27%.

For the compound `Cc1cc(C)cc(Nc2cc(C)nc3nc(C(F)(F)F)nn23)c1` [MMV011259], the inhibition at 50 µM in series [7] is 29.5%; in series [9] it was 54.7%; in series [2] (setting [15]), 100%; in series [2] (setting [16]), 99%. In [8] (human, 50 uM), the “HepG2 Tox% @ 50 uM rep1” value was 30%.

On to `COc1cc(Cc2cnc(N)nc2N)cc(OC)c1OC` [Trimethoprim], for which the IC50 in [1] (setting [19]) is 5640 nM.
